Results on ten compounds are retold here after patent US6949553B2, “Aliphatic compounds, their synthesis method, and utilization of the same” (Maruha Corporation, priority 2001, dated 2005).

For test [1], the system named is platelets. As to the kind of experiment: Collagen-induced in vitro platelet aggregation (rabbit PRP, transmittance). Particulars: Oryctolagus cuniculus; collagen 0.2 μg/ml, rabbit platelet rich plasma; read-out: 50% Inhibition Point for Platelet Aggregation, IC50. Format: cell-based. The method, then:
Collagen-induced in vitro Platelet Aggregation
It was studied whether the compounds of the present invention would inhibit platelet aggregation induced by collagen.
These compounds were each diluted with physiological saline to end concentrations of 1×10^−7M, 3×10^−7M, 1×10^−6M, 3×10^−6M, 1×10^−5M, 3×10^−5M and 1×10^−4M.
Indomethacin was used as a positive control. Indomethacin was dissolved in methanol, and then diluted with physiological saline to end concentrations of 1×10^−6M, 3×10^−6M and 1×10^−5M.
Physiological saline was used as a negative control.
The tube was centrifuged at 900 rpm for 10 minutes at room temperature to separate the supernatant (PRP, platelet rich plasma fraction). The residue was further centrifuged for 15 minutes at 2,500 rpm to obtain the supernatant (PPP, platelet poor plasma fraction).
PPP (platelet poor plasma fraction) was placed in a cuvette, and the cuvette was mounted in a 37° C. incubator for PPP of an aggregometer (Hematracer 240 12ch, manufactured by MCM). Then, 200 μl of PRP (platelet rich plasma fraction) was added into a cuvette, and the cuvette was mounted in a reactor for PRP. With stirring by a magnetic stirrer, the transmittance of PPP was corrected to T650 nm=100%, and the transmittance of PRP was corrected to T650 nm=0%, by automatic adjustment for 30 seconds.
The study substance (20 μl) at a predetermined concentration was added into the cuvette and, 30 seconds later, 20 μl (end concentration 0.2 μg/ml) of collagen (produced by MCM) was added. Subsequent changes in the transmittance were recorded for 5 minutes. When the platelets are aggregated, the transmittance increases. When aggregation peaked, the transmittance T at maximum aggregation was compared with the transmittance T0 of the negative control, and the aggregation inhibition rate was expressed as percentage using the following equation: Aggregation inhibition rate=(1−T/T0)×100
From an aggregation inhibition curve obtained, a regression equation was derived by approximation of the linear type.

Test [2] has as its system platelets. As to the kind of experiment: In vitro platelet aggregation by various inducers, rat platelets. The test is classed as cell-based. Particulars: inducer collagen (0.1 to 1 μg/ml), rat platelets, read-out: 50% inhibition point, IC50, for in vitro platelet aggregation. The text has this: (§1) Next, the suppression of platelet aggregation by the compounds of the present invention was studied in the same manner as described above with the use of not only collagen, but also arachidonic acid, ADP, thrombin, serotonin, epinephrine and U46619 (pseudo-thromboxane A2 substance) as inducers.
(§2) As platelets, platelets prepared from rats and guinea pigs as well as rabbits were also used.
(§3) Collagen and ADP were purchased from MCM, and used in accordance with the method of preparation described in the manuals attached to the purchased products. Serotonin, epinephrine and thrombin were purchased from Sigma, and used as solutions in physiological saline for injection (Otsuka Pharmaceutical Factory). Arachidonic acid was purchased from Cayman, and dispersed in physiological saline for injection (Otsuka Pharmaceutical Factory) with the use of an immersion type ultrasonic oscillator (US150, NIPPON SEIKI, tip end diameter ca. 3.5 mm). U46619 (pseudo-thromboxane substance) was purchased from FUNAKOSHI, and dissolved in physiological saline for injection (Otsuka Pharmaceutical Factory) when used.
(§4) Collagen (0.1 to 1 μg/ml), arachidonic acid (1 mM), ADP (1 μM), thrombin (1 U/ml), serotonin (100 μM), epinephrine (100 to 200 μM), and U46619 (3 μM) were used.
(§5) Indomethacin was used as a positive control for measuring the suppression of platelet aggregation induced by collagen.

For test [3], the system named is platelets. Kind of test: In vitro platelet aggregation by various inducers, guinea pig platelets. The test is classed as cell-based. The following applies: Cavia porcellus, inducer collagen (0.1 to 1 μg/ml), guinea pig platelets, read-out: 50% inhibition point, IC50, for in vitro platelet aggregation.
From the text: as §1, §2, §3, §4, §5

The test system of test [4] is platelets. As to the kind of experiment: In vitro platelet aggregation by various inducers, rabbit platelets. The test is classed as cell-based. The following applies: Oryctolagus cuniculus, Platelet; inducer collagen (0.1 to 1 μg/ml), rabbit platelets; read-out: 50% inhibition point, IC50, for in vitro platelet aggregation.
From the text: as §1, §2, §3, §4, §5

In test [5] the test system is neutrophils and vascular endothelial cells. As to the kind of experiment: Pseudo-blood vessel in vitro inflammation model (TNFα, neutrophil migration through endothelial cell layer). Format: cell-based, bovine. Particulars: 30, 3 or 0.3 μM, TNFα 50 ng/ml.
Method: A layer of bovine endothelial cells was adhered to the bottom surface of the membrane, and cultured for 80 minutes at 37° C. in 5% CO2. Then, a suspension of fluorescence-labeled neutrophils was added to the upper chamber of the transwell. Simultaneously, TNFα was suspended in the cell suspension in the upper chamber to an end concentration of 50, 25 or 17 ng/ml.
That is, in the above model, the phenomena that neutrophils pass from the upper chamber through the vascular endothelial cell layer into the lower chamber, and neutrophils adhere to the endothelial cell layer mimic a state where in response to TNFα within the blood vessel, neutrophils migrate from within the blood vessel to the site of inflammation.
In the same manner as described above, the number of neutrophils passing from the upper chamber through the vascular endothelial cell layer into the lower chamber, and the number of neutrophils adhering to the endothelial cell layer were measured. Based on these numbers, the neutrophil migration rate (%) was calculated. The neutrophil migration rate was expressed as the relative value (%) of the number of the migrating neutrophils in the drug treatment group with respect to the number of the migrating neutrophils in the negative control group (physiological saline).
The subject of test [6] is platelets. Kind of test: Ex vivo platelet aggregation after intravenous administration. The following applies: 0.1 mg/kg intravenous, blood 1 hour after administration, collagen 1 to 6 μg/ml. The test is classed as in vivo, rat. The method, then: The blood was withdrawn at three points in time, 10 minutes, 30 minutes and 1 hour after administration. Platelets were prepared from the blood samples taken, and they were used to study the aggregation rates when platelet aggregation was induced by 0.3 to 6 μg/ml of collagen. In a control group, the aggregation rates after administration of a solvent (physiological saline) were measured.
It was studied whether the compound of the present invention would suppress ex vivo platelet aggregation dose-dependently.
The blood was withdrawn 60 minutes after administration, and platelets were prepared from the blood. Platelet aggregation was induced by 4 to 7 μg/ml of collagen using the platelets.
The blood was withdrawn 1 hour after intravenous administration, and platelets were prepared from the blood. Platelet aggregation was induced by 1 to 6 μg/ml of collagen using the platelets.

As a reminder, the IC50 is the point on the concentration scale where inhibition reaches its midpoint. As for `CCCCC/C=C\C/C=C\CCCCCCCC(=O)NCCC1CCCN1C` (stereo not drawn) [Compound 6, (9Z,12Z)-N-[2-(1-methylpyrrolidin-2-yl)ethyl]linoleamide], the IC50 in test [1] was found to be 2.1 µM.

With `COc1ccc2c(c1)c(CC(=O)O)c(C)n2C(=O)c1ccc(Cl)cc1` [Indomethacin, reference compound], the half-maximal inhibitory concentration (IC50) in test [1] stood at 5 µM; in test [2] it was 18 µM; in test [3] it was 29 µM; in test [4], 4 µM. As for `CC/C=C\C/C=C\C/C=C\C/C=C\C/C=C\C/C=C\CCC(=O)NN1CCN(C)CC1` [Compound 1, (4Z,7Z,10Z,13Z,16Z,19Z)-N-(4-methylpiperazin-1-yl)docosahexaenoamide], the half-maximal inhibitory concentration (IC50) in test [1] was 7.9 µM. The “neutrophil passage through vascular endothelial cell layer (in words)” value in test [5] is “suppressed neutrophil passage dose-dependently”.

Take `CC/C=C\C/C=C\C/C=C\C/C=C\C/C=C\C/C=C\CCC(=O)NCCCC1CCCN1C` (stereo not drawn) [Compound 11, (4Z,7Z,10Z,13Z,16Z,19Z)-N-[3-(1-methylpyrrolidin-2-yl)propyl]docosahexaenoamide]: in test [1], the half-maximal inhibitory concentration (IC50) turned out to be 4.2 µM.

As to `CCCCCCCC/C=C\CCCCCCCC(=O)NCCC1CCCN1C` (stereo not drawn) [Compound 5, 9Z-N-[2-(1-methylpyrrolidin-2-yl)ethyl]oleamide], the IC50 in test [1] was determined as 5.6 µM. The “ex vivo platelet aggregation (in words)” value in test [6] was “suppress platelet aggregation”. With `CC/C=C\C/C=C\C/C=C\C/C=C\C/C=C\CCCC(=O)NCCC1CCCN1C` (stereo not drawn) [Compound 8, (5Z,8Z,11Z,14Z,17Z)-N-[2-(1-methylpyrrolidin-2-yl)ethyl]eicosapentaenoamide], the half-maximal inhibitory concentration (IC50) in test [1] is 3.7 µM. Same read-out and setting: the value for `CCCCCCCC(=O)NCCC1CCCN1C` (stereo not drawn) [Compound 3, N-[2-(1-methylpyrrolidin-2-yl)ethyl]caprylamide] was 8.1 µM; that for `CCCCCCCCCCCCCC(=O)NCCC1CCCN1C` (stereo not drawn) [Compound 4, N-[2-(1-methylpyrrolidin-2-yl)ethyl]myristamide] was 42 µM.

Turning to `CC/C=C\C/C=C\C/C=C\C/C=C\C/C=C\C/C=C\CCC(=O)NCC1CCCN1C` (stereo not drawn) [Compound 9, (4Z,7Z,10Z,13Z,16Z,19Z)-N-[(1-methylpyrrolidin-2-yl)methyl]docosahexaenoamide], the IC50 in test [1] came out at 1.5 µM. Same read-out and setting: next, `CC/C=C\C/C=C\C/C=C\CCCCCCCC(=O)NCCC1CCCN1C` (stereo not drawn) [Compound 7, (9Z,12Z,15Z)-N-[2-(1-methylpyrrolidin-2-yl)ethyl]linolenamide]: 3.7 µM.
